Experimental data from patent US20200179269A1, “VAPORIZABLE COMPOSITIONS COMPRISING CANNABINOL” (KANABO RESEARCH LTD., priority 2017, published 2020).

Tested on: Loss of Righting Reflex (LORR) in mice
Test: Sleep induction model in mice: Loss of Righting Reflex (LORR) after Pentobarbital, sleep latency and sleep duration
Assay type: in vivo, mice BALB/c
Parameters: Sleep latency median / Sleep latency (mean) / Sleep duration median / Sleep duration (mean): unit not given here
From the text: The objective of the present study is to evaluate various cannabinoid mixtures with terpenes in the sleep induction model in mice and then in the second part optimize the doses.
Study Variables and End Points • Mortality and morbidity—once a day. • Body weight—during acclimation and before dosing. • Behavioral test—righting reflex—sleep latency and duration
The principle of the study is based on the ability of sleep promoting agents to shorten the time until Loss of Righting Reflex (LORR) occurs and prolong the presence of LORR in rodents treated with established anesthetizing agent.
Mice were be utilized and divided into 62 groups of three in each group.
Combinations of 3 different cannabinoids: CBN, CBD and THC and 2 terpenes: (β-myrcene and linalool were tested. Diazepam (2 mg/kg) was used as a positive control. Ethanol:Cremophor:Saline (1:1:18) was used as negative control. The items were dissolved in Ethanol:Cremophor:Saline. The items, positive and negative controls were IP injected. Three (or four) mice were used for each group. 5 cycles of experiments were performed. In Cycles 1 each cannabinoid at different concentrations was separately administered; in Cycle 2—combinations of the cannabinoids with different concentration were administered (4 mice per group were used for items), in Cycle 3—different terpenes at different concentration were administered, in Cycle 4—combinations of different cannabinoids and terpenes were administered and in Cycle 5—compositions with high content of cannabinoids and low content of terpenes were tested (4 mice per group).
Female mice BALB/c strain of 7 weeks age were used for the experiment. The mice were allowed to acclimatize for at least 5 days. Animals were fed ad libitum a commercial rodent diet (Teklad Certified Global 18% Protein Diet, Harlan cat #2018). Animals had free access to sterilized and acidified drinking water (pH between 2.5 and 3.5) obtained from the municipality supply. Animals were housed under standard laboratory conditions, air conditioned and filtered (HEPA F6/6) with adequate fresh air supply (Minimum 15 air changes/hour). Animals were kept in a climate controlled environment. Temperatures range were 18-24° C. and relative humidity range 30-70% with a 12 hours light and 12 hours dark cycle (6 AM/6 PM).
The duration of the study was one day per cycle. The study was conducted in five cycles (see Tables 10-15). Each Test Item or vehicle formulation was administrated to three (or four) animals per group. Morbidity and mortality was checked once a day.
Sleeping Test was performed according to Pharmaseed's SOP No. 130: “Loss of Righting Reflex”. Mice were injected intraperitoneally (IP) with the positive control Diazepam (2 mg/kg, IP), vehicle or with the Test Items 30 minutes prior to Pentobarbital (40 mg/kg, IP) administration. Observation of the mouse begun immediately after administration of Pentobarbital. Once the mouse was asleep (the loss of righting reflex—LORR), it was be transferred to a home cage and placed on its back. Mice was considered awake when they could successfully upright themselves (all four feet in contact with the surface). Once a mouse righted itself, it was placed on its back once again and allowed to right a second time for confirmation. Expected sleep onset and duration of the negative control group was 5-8 min and 20-25 min, respectively. For positive control expected sleep onset and duration were 3-4 min and 40-50 min, respectively.
While the animals were asleep, fatty ophthalmic ointment (e.g. Duratears®) was be applied to their eyes to avoid drying of the eye. Also, since Diazepam might cause hypothermia, the cages with the sleeping mice were be placed on a heating pad.
The following parameters were be recorded and served as an index of sleep behavior: • Sleep latency—time required to sleep induction. • Sleep duration.
At termination, the animals were sacrificed by CO2 asphyxiation.

[1] = Cycle 4, group 43F, Diazepam 2 mg/kg
[2] = Cycle 1, high doses (above 5 mg/kg)

C=C(C)[C@@H]1CCC(C)=C[C@H]1c1c(O)cc(CCCCC)cc1O [CBD, cannabidiol]
effect on sleeping (Cycle 1, 1 mg/kg dose): assisted in sleeping
Sleep duration (mean) (Cycle 1, dose 1 mg/kg IP): (14)
Sleep duration median (Cycle 1, dose 1 mg/kg IP): 9
Sleep latency (mean) (Cycle 1, dose 1 mg/kg IP): (13)
Sleep latency median (Cycle 1, dose 1 mg/kg IP): 16
Sleep duration (mean) (Cycle 1, dose 5 mg/kg IP): (49)
Sleep duration median (Cycle 1, dose 5 mg/kg IP): 49
Sleep latency (mean) (Cycle 1, dose 5 mg/kg IP): (6)
Sleep latency median (Cycle 1, dose 5 mg/kg IP): 6
Sleep duration (mean) (Cycle 1, dose 20 mg/kg IP): (48)
Sleep duration median (Cycle 1, dose 20 mg/kg IP): 48
Sleep latency (mean) (Cycle 1, dose 20 mg/kg IP): (8)
Sleep latency median (Cycle 1, dose 20 mg/kg IP): 9
Sleep duration (mean) (Cycle 1, dose 50 mg/kg IP): (84)
Sleep duration median (Cycle 1, dose 50 mg/kg IP): 68
Sleep latency (mean) (Cycle 1, dose 50 mg/kg IP): (6)
Sleep latency median (Cycle 1, dose 50 mg/kg IP): 6

CCCCCc1cc(O)c2c(c1)OC(C)(C)c1ccc(C)cc1-2 [CBN, 6,6,9-trimethyl-3-pentylbenzo[c]chromen-1-ol]
dose response for duration of sleep parameter (Cycle 1): moderate dose response
Sleep duration (mean) (Cycle 1, dose 0.1 mg/kg IP): (26)
Sleep duration median (Cycle 1, dose 0.1 mg/kg IP): 34
Sleep latency (mean) (Cycle 1, dose 0.1 mg/kg IP): (5)
Sleep latency median (Cycle 1, dose 0.1 mg/kg IP): 4
Sleep duration (mean) (Cycle 1, dose 0.5 mg/kg IP): (14)
Sleep duration median (Cycle 1, dose 0.5 mg/kg IP): 15
Sleep latency (mean) (Cycle 1, dose 0.5 mg/kg IP): (8)
Sleep latency median (Cycle 1, dose 0.5 mg/kg IP): 8
Sleep duration (mean) (Cycle 1, dose 2 mg/kg IP): (23)
Sleep duration median (Cycle 1, dose 2 mg/kg IP): 25
Sleep latency (mean) (Cycle 1, dose 2 mg/kg IP): (6)
Sleep latency median (Cycle 1, dose 2 mg/kg IP): 6
Sleep duration (mean) (Cycle 1, dose 5 mg/kg IP): (31)
Sleep duration median (Cycle 1, dose 5 mg/kg IP): 32
Sleep latency (mean) (Cycle 1, dose 5 mg/kg IP): (9)
Sleep latency median (Cycle 1, dose 5 mg/kg IP): 8

CN1C(=O)CN=C(c2ccccc2)c2cc(Cl)ccc21 [Diazepam, reference compound]
state of the mice after awakening (Cycle 1): remained dizzy for a prolonged period of time
Sleep duration (mean) (Cycle 1, dose 2 mg/kg IP): (94)
Sleep duration median (Cycle 1, dose 2 mg/kg IP): 94
Sleep latency (mean) (Cycle 1, dose 2 mg/kg IP): (3)
Sleep latency median (Cycle 1, dose 2 mg/kg IP): 2
Sleep duration (mean) (Cycle 2, dose 2 mg/kg IP): (51.7)
Sleep duration median (Cycle 2, dose 2 mg/kg IP): 56
Sleep latency (mean) (Cycle 2, dose 2 mg/kg IP): (4.3)
Sleep latency median (Cycle 2, dose 2 mg/kg IP): 4
Sleep duration (mean) (Cycle 3, Dose 2, IP): (66.3)
Sleep duration median (Cycle 3, Dose 2, IP): 60
Sleep latency (mean) (Cycle 3, Dose 2, IP): (2.3)
Sleep latency median (Cycle 3, Dose 2, IP): 2
Sleep duration (mean) [1]: (76)
Sleep duration median [1]: 69
Sleep latency (mean) [1]: (3.3)
Sleep latency median [1]: 3

C=CC(C)(O)CCC=C(C)C (stereo not shown) [Linalool, linalool]
Sleep duration (mean) (Cycle 3, Dose 20, IP): (5.3)
Sleep duration median (Cycle 3, Dose 20, IP): 6
Sleep latency (mean) (Cycle 3, Dose 20, IP): (5)
Sleep latency median (Cycle 3, Dose 20, IP): 5
Sleep duration (mean) (Cycle 3, Dose 100, IP): (5.3)
Sleep duration median (Cycle 3, Dose 100, IP): 6
Sleep latency (mean) (Cycle 3, Dose 100, IP): (5.5)
Sleep latency median (Cycle 3, Dose 100, IP): 5
Sleep duration (mean) (Cycle 3, Dose 300, IP): (97.3)
Sleep duration median (Cycle 3, Dose 300, IP): 120
Sleep latency (mean) (Cycle 3, Dose 300, IP): (2)
Sleep latency median (Cycle 3, Dose 300, IP): 2
dose response of the terpene in combination with CBN and CBD (Cycle 4): evident dose response
Sleep duration (mean) (Cycle 5, dose 10 mg/kg IP): (6)
Sleep duration median (Cycle 5, dose 10 mg/kg IP): 6.5
Sleep latency (mean) (Cycle 5, dose 10 mg/kg IP): (8)
Sleep latency median (Cycle 5, dose 10 mg/kg IP): 8

C=CC(=C)CCC=C(C)C [Myrcene, β-myrcene]
Sleep duration (mean) (Cycle 3, Dose 20, IP): (8.7)
Sleep duration median (Cycle 3, Dose 20, IP): 9
Sleep latency (mean) (Cycle 3, Dose 20, IP): (4.7)
Sleep latency median (Cycle 3, Dose 20, IP): 5
Sleep duration (mean) (Cycle 3, Dose 100, IP): (7.3)
Sleep duration median (Cycle 3, Dose 100, IP): 7
Sleep latency (mean) (Cycle 3, Dose 100, IP): (5)
Sleep latency median (Cycle 3, Dose 100, IP): 5
Sleep duration (mean) (Cycle 3, Dose 300, IP): (61.3)
Sleep duration median (Cycle 3, Dose 300, IP): 31
Sleep latency (mean) (Cycle 3, Dose 300, IP): (3)
Sleep latency median (Cycle 3, Dose 300, IP): 3
dose response of the terpene in combination with CBN and CBD (Cycle 4): evident dose response
Sleep duration (mean) (Cycle 5, dose 10 mg/kg IP): (5)
Sleep duration median (Cycle 5, dose 10 mg/kg IP): 5
Sleep latency (mean) (Cycle 5, dose 10 mg/kg IP): (5)
Sleep latency median (Cycle 5, dose 10 mg/kg IP): 5

CCCCCc1cc(O)c2c(c1)OC(C)(C)[C@@H]1CCC(C)=C[C@@H]21 [THC, tetrahydrocannabinol]
state of the mice after awakening (Cycle 1): much more vivid after awakening
Sleep duration (mean) (Cycle 1, dose 0.5 mg/kg IP): (6)
Sleep duration median (Cycle 1, dose 0.5 mg/kg IP): 8
Sleep latency (mean) (Cycle 1, dose 0.5 mg/kg IP): (4)
Sleep latency median (Cycle 1, dose 0.5 mg/kg IP): 4
Sleep duration (mean) (Cycle 1, dose 2 mg/kg IP): (12)
Sleep duration median (Cycle 1, dose 2 mg/kg IP): 0
Sleep latency (mean) (Cycle 1, dose 2 mg/kg IP): (20)
Sleep latency median (Cycle 1, dose 2 mg/kg IP): 20
Sleep duration (mean) (Cycle 1, dose 5 mg/kg IP): (10)
Sleep duration median (Cycle 1, dose 5 mg/kg IP): 9
Sleep latency (mean) (Cycle 1, dose 5 mg/kg IP): (25)
Sleep latency median (Cycle 1, dose 5 mg/kg IP): 24
Sleep duration (mean) (Cycle 1, dose 10 mg/kg IP): (21)
Sleep duration median (Cycle 1, dose 10 mg/kg IP): 11
Sleep latency (mean) (Cycle 1, dose 10 mg/kg IP): (11)
Sleep latency median (Cycle 1, dose 10 mg/kg IP): 11
effect on sleep duration [2]: decreases the sleep duration
effect on sleep latency (time required for falling asleep) [2]: increases the sleep latency
effect on onset of sleep (Cycle 1, medium concentrations (2-5 mg/kg)): increases the onset of sleep
effect of addition to the combination of CBN, CBD and terpene (Cycle 4, 0.5 mg/kg): reduced the observed effect
